{"source": "paper PMC6382696", "about": "“Drug Repurposing: The Anthelmintics Niclosamide and Nitazoxanide Are Potent TMEM16A Antagonists That Fully Bronchodilate Airways” (Frontiers in Pharmacology, 2019)", "key": {"[1]": {"system": "mouse tracheal rings", "test": "Bronchodilation of cytokine-treated mouse tracheal rings", "conditions": "overnight IL-1β, TNFα, IL-13 100 ng/ml, EC75 carbachol", "protocol": "Airway rings were treated overnight in 2 ml DMEM + PSG/HEPES/AA/NaPyr buffer alone or with the same solution supplemented with 100 ng/ml of mTNFα, mIL-13 and mIL-1β. Unlike like the typical Wake-Up protocol and ring qualifying tests, mouse tracheal rings were not exposed to KPSS and rings were not observed to relax with a β-agonist following discovery of CCh dose-responses. After several washes with PSS, EC75 concentrations of CCh were used to pre-contract rings for >30 min alone or in the presence of cytokines."}, "[2]": {"system": "mouse airway rings", "test": "Duration of bronchodilation after washout and carbachol re-challenge, mouse airway rings", "conditions": "EC75 carbachol, preliminary", "protocol": "Mouse airway rings were exposed to a typical Wake-Up procedure including the use of KPSS and discovery of EC75 CCh dose responses. However, no isoproterenol was used to observe tissue relaxation as part of the qualification procedure. With pre-contraction with EC75 CCh for >30 min, rings were subjected to a compound dose-response, followed by a complete washout of compound, and re-contracted with EC75 CCh. Traces were recorded for several hours thereafter and normalized to theophylline as control of 100% relaxation."}, "[3]": {"system": "primary human airway smooth muscle cells", "test": "Methacholine-induced depolarization of primary human airway smooth muscle cells", "format": "cell-based", "conditions": "donor 199524, 20 M methacholine (so in the source), read-out: EC50 inhibition of methacholine-induced depolarization (converted)", "protocol": "Cultured human bronchial smooth muscle cells (BSMC) from Lonza were resuspended in Smooth Muscle Growth Medium-2 (SmGM-2; Lonza) at a concentration of 4 × 10^5 cells per ml. One hundred microliters of cells per well were plated in a black wall clear bottom polystyrene 96-well tissue culture plate and incubated in a 37°C humidified incubator with 5% CO2 overnight. Cells were serum starved by removing the SmGM-2 and replaced with one hundred microliters per well of Smooth Muscle Cell Basal Medium 2 (SmBM-2), phenol red-free (PromoCell), and incubated in a 37°C humidified incubator with 5% CO2 for 24 h. SmBM-2 was replaced with 100 microliters of fresh SmBM-2. […] Using the FLIPR-Tetra (Molecular Devices), three measurements of the baseline fluorescence were taken over the span of 1 min. […] Fifty-five fluorescence measurements were taken over the span of 14 min. The area under the curve (AUC) from the fluorescence kinetic traces (normalized to baseline fluorescence) were calculated. The amount of fluorescence in the presence of compound compared with that in the presence of DMSO vehicle alone (HI control) was calculated using the formula: % control (POC) = (compd – average LO)/(average HI – average LO)^∗100. […]\nPanels (B-D) show raw fluorescence data from the membrane potential assay of buffer alone (dashed line), buffer plus 20 µM methacholine […]\nRFU = relative fluorescence units. […]"}, "[4]": {"system": "Wnt/β-catenin transcription", "test": "Wnt/β-catenin transcription TOPFlash reporter assay", "format": "cell-based", "conditions": "Wnt TopFlash IC50 over TMEM16A eYFP IC50"}, "[5]": {"system": "HCT116", "set-up": "method as in Li et al., 2014", "conditions": "ref Li et al., 2014, read-out: IC50 inhibition of proliferation; cited from earlier work"}, "[6]": {"system": "COLO205", "set-up": "method as in Li et al., 2014", "conditions": "ref Li et al., 2014, read-out: IC50 inhibition of proliferation; cited from earlier work"}, "[7]": {"system": "HT29", "set-up": "method as in Li et al., 2014", "conditions": "ref Li et al., 2014, read-out: IC50 inhibition of proliferation; cited from earlier work"}, "[8]": {"system": "mouse tracheal rings", "test": "β-agonist use-dependent desensitization of mouse tracheal rings", "conditions": "add-on after isoproterenol round 2", "source_text": "Standard procedures were used to prepare and mount tissues."}}, "note": "pIC50: −log10 of the molar value. “Also recorded” adds a separate entry of the source."}
{"smiles": "CCc1oc2ccccc2c1C(=O)c1cc(Br)c(O)c(Br)c1", "note": "[Benzbromarone]", "values": [{"measurement": "bronchodilation of cytokine-treated airways", "setting": "[1]", "result": "fully bronchodilated"}, {"measurement": "duration of bronchodilation after washout and re-challenge", "setting": "[2]", "result": "long lasting; also recorded: sustained bronchodilation lasting several hours"}]}
{"smiles": "Oc1ccc(Cl)cc1Cc1cc(Cl)ccc1O", "note": "[Dichlorophen]", "values": [{"measurement": "EC50", "setting": "[3]", "result": 3700, "unit": "nM"}]}
{"smiles": "O=C(Nc1ccc(Cl)cc1)c1cc(Cl)ccc1O", "note": "[Cpd 5]", "values": [{"measurement": "IC50 Ratio, Wnt/TMEM16A", "setting": "[4]", "result": 3.51}]}
{"smiles": "O=C(Nc1ccc([N+](=O)[O-])cc1Cl)c1cc(Cl)ccc1O", "note": "[Niclosamide]", "values": [{"measurement": "IC50 Ratio, Wnt/TMEM16A", "setting": "[4]", "result": 2.62}, {"measurement": "bronchodilation of cytokine-treated airways", "setting": "[1]", "result": "fully bronchodilated"}, {"measurement": "duration of bronchodilation after washout and re-challenge", "setting": "[2]", "result": "long lasting; also recorded: sustained bronchodilation lasting several hours"}, {"measurement": "pIC50", "setting": "[5]", "result": 6.43}, {"measurement": "pIC50", "setting": "[6]", "result": 6.01}, {"measurement": "pIC50", "setting": "[7]", "result": 5.38}]}
{"smiles": "COc1cc([N+](=O)[O-])ccc1NC(=O)c1cc(Cl)c2ccccc2c1O", "note": "[Cpd 4]", "values": [{"measurement": "% relaxation after add-on to desensitized ring", "setting": "[8]; EC50 carbachol", "result": 98.9, "unit": "%"}, {"measurement": "% relaxation after add-on to desensitized ring", "setting": "[8]; EC75 carbachol", "result": 95.4, "unit": "%"}]}
